Twelve compounds from PubChem BioAssay (NCI) can be followed below.

Some test systems named below: KM20L2 colon; UO-31 renal; COLO 205 colon; CCRF-CEM leukemia; RXF-631 renal; HOP-92 NSCLC; NCI/ADR-RES ovarian; OVCAR-4 ovarian; XF 498 CNS; LXFL 529 NSCLC; MDA-MB-435; HS 578T breast; MDA-N; DU-145 prostate.
Assay in all cases: NCI anticancer screen, dose series, 48 h

SMILES strings stand for the structures.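 Tested at 5 concentrations; 48 h exposure; 96-well plates; endpoints linearly interpolated, else capped at highest concentration. GI50: concentration for 50% inhibition of growth. TGI: concentration producing complete growth inhibition.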

Turning to `C=C1CC[C@@H](Br)C(C)(C)[C@]12CCC(C)(O)C(Cl)C2` (some centres not stated), the TGI amounted to 32.9 µM in the test on KM20L2 colon; 32 µM in the test on UO-31 renal; 29.6 µM with COLO 205 colon; 47.9 µM in the test on CCRF-CEM leukemia; 41.9 µM with RXF-631 renal; 46.3 µM in the test with HOP-92 NSCLC.
In the case of `O=C(CCl)NC(Cc1ccc(F)cc1)C(=O)O` (configuration not stated), the TGI with KM20L2 colon, in the test on NCI/ADR-RES ovarian, in the test on UO-31 renal, in the test with COLO 205 colon, in the test with CCRF-CEM leukemia and in the test with OVCAR-4 ovarian was more than 100 µM in each case. Moreover, the TGI in the test on HOP-92 NSCLC and in the test with XF 498 CNS was more than 100 µM in each case.
With `CCOC(=O)[C@H]1Nc2c(cccc2[N+](=O)[O-])[C@H]2OCC[C@@H]12`, the TGI with KM20L2 colon, in the test on LXFL 529 NSCLC, with UO-31 renal, with COLO 205 colon, in the test on RXF-631 renal and with OVCAR-4 ovarian was more than 100 µM in each case. Besides, the TGI in the test on XF 498 CNS is more than 100 µM.
Consider `CCCCCCCCCCCCCCCC(=O)OCC1CCCN2CCCCC12` (configuration not stated), for which the TGI with NCI/ADR-RES ovarian, with MDA-MB-435, in the test on HS 578T breast, in the test with UO-31 renal, in the test on MDA-N and in the test on COLO 205 colon was more than 100 µM in each case. Besides, the TGI in the test with CCRF-CEM leukemia, in the test on DU-145 prostate, in the test on OVCAR-4 ovarian and with HOP-92 NSCLC was more than 100 µM throughout.
As for `O=C(O)NCc1ccccc1` (tested in a mixture with another compound), the TGI in the test on NCI/ADR-RES ovarian was more than 90 µM; in the test on MDA-MB-435, more than 86.8 µM; with HS 578T breast, more than 82.8 µM; with UO-31 renal, 91.9 µM; with MDA-N, more than 94.4 µM; in the test with COLO 205 colon, 43.3 µM. Further, the TGI in the test on CCRF-CEM leukemia was 51.7 µM; in the test with DU-145 prostate it was more than 100 µM; in the test on OVCAR-4 ovarian, more than 95.8 µM; with HOP-92 NSCLC, 67.2 µM.
In the case of `CC1CCC(O)(C(C)(C(=O)O)c2ccccc2)CC1` (configuration not stated), the TGI with NCI/ADR-RES ovarian, with MDA-MB-435, in the test on HS 578T breast, with UO-31 renal, in the test with MDA-N and in the test with CCRF-CEM leukemia was more than 100 µM throughout. The TGI in the test with DU-145 prostate, in the test on OVCAR-4 ovarian and in the test on HOP-92 NSCLC was more than 100 µM in each case.
For `CC[C@H](Nc1nc(N)nc(C)c1C#N)c1nc2cccc(NCc3ccc(C(=O)NO)cc3)c2c(=O)n1-c1ccccc1`, the GI50 is 13.5 µM with NCI/ADR-RES ovarian; 1.95 µM in the test on HS 578T breast; 2.05 µM with COLO 205 colon; 0.679 µM in the test on CCRF-CEM leukemia; 1.98 µM with DU-145 prostate; 2.01 µM with OVCAR-4 ovarian. For the same compound, the TGI in the test on NCI/ADR-RES ovarian was more than 100 µM; in the test with HS 578T breast, 6.08 µM; in the test with COLO 205 colon, 5.31 µM; in the test with CCRF-CEM leukemia, more than 100 µM; with DU-145 prostate, 6.53 µM; in the test with OVCAR-4 ovarian it was 7.52 µM.
`NC(=S)Nc1cc(Cl)ccc1Cl`: the TGI with KM20L2 colon, with LXFL 529 NSCLC, in the test on UO-31 renal, in the test with COLO 205 colon, in the test on CCRF-CEM leukemia and in the test with RXF-631 renal was more than 100 µM in each case. The TGI in the test on OVCAR-4 ovarian, in the test with HOP-92 NSCLC and in the test with XF 498 CNS was more than 100 µM throughout.
Take `COc1cc(N/N=C/C#N)cc(OC)c1OC`: the TGI with NCI/ADR-RES ovarian, in the test with MDA-MB-435, in the test with HS 578T breast, with UO-31 renal, in the test on MDA-N and in the test with COLO 205 colon was more than 10 µM each time. Further, the TGI with CCRF-CEM leukemia, with DU-145 prostate and in the test with OVCAR-4 ovarian was more than 10 µM in each case.
Regarding `C/C(=N\Oc1cc(Cl)ncn1)c1ccccn1`, the TGI with NCI/ADR-RES ovarian, in the test with MDA-MB-435, in the test with HS 578T breast, with UO-31 renal, with MDA-N and in the test with COLO 205 colon was more than 100 µM throughout. Further, the TGI in the test on CCRF-CEM leukemia is more than 100 µM; with DU-145 prostate it was more than 100 µM; with OVCAR-4 ovarian, more than 100 µM; in the test with HOP-92 NSCLC, 74.3 µM.
With `Cc1cc2c(cc1C)[n+](=O)c(C#N)c(Cl)n2[O-]`, the TGI is 42.3 µM with NCI/ADR-RES ovarian; more than 100 µM with MDA-MB-435; more than 100 µM in the test on HS 578T breast; 32.2 µM in the test with UO-31 renal; 41.6 µM in the test with MDA-N; 21.7 µM in the test on COLO 205 colon. Moreover, the TGI in the test with CCRF-CEM leukemia was 45.3 µM; in the test on DU-145 prostate, 43.4 µM; with OVCAR-4 ovarian, 31.2 µM; in the test on HOP-92 NSCLC, 30.3 µM.
Consider `Nc1nncc2c1ccn2C1OC(CO)C(O)C1O` (configuration not stated), for which the TGI in the test with KM20L2 colon, with LXFL 529 NSCLC, with UO-31 renal, with COLO 205 colon, in the test with CCRF-CEM leukemia and in the test on OVCAR-4 ovarian was more than 100 µM throughout. The same compound displayed a TGI in the test on HOP-92 NSCLC of more than 100 µM.
